# Experimental data from article PMC12648443, “Modifications of NU-9, a potent protein aggregation inhibitor. Properties and activity in a cellular model of amyotrophic lateral sclerosis” (Bioorganic chemistry, 2025).
# What was measured:
# [1] = test system: cells containing SOD1 mutations associated with ALS; set-up: method as in PMID 21073276, PMID 22189273, PMID 22837812; details: Fig. 1, evolution of CHD series; cited from earlier work
# cortical neurons = test system: cortical neurons; set-up: method as in PMID 22189273; details: cited from earlier work
# [2] = test system: MG132-induced mutant SOD1 intracellular aggregation in PC12-SOD1^G85R YFP cells; assay: Protection against MG132-induced mut-SOD1 intracellular aggregation (fluorescence microscopy); format: cell-based; details: for EC50 / EC50 against MG132-induced mutant SOD1 intracellular aggregation: PC12-SOD1^G85R YFP cells, 0.7 μM MG132, 72 h, Inactive = no decrease of aggregates at 10 μM vs vehicle; for loss of potency relative to NU-9: anti-aggregation EC50 compared with NU-9
# Method: The PC12 Tet-Off-SOD1^G85R YFP cells were cultured in DMEM media supplemented with 10 % horse serum, 5 % Tet-approved FBS, 1 % Penstrep, 1× L-glutamine, 200 μg/mL hygromycin, 100 μg/mL G418, with 1 μg/mL Doxycycline and were incubated at 37 °C in humidified air with […] until 90–95 % confluency. To induce the expression of SOD1^G85R YFP, the Doxycycline was removed at least 4 days before the experiment. To remove the Doxycycline, the media was removed, and the cells were washed 3 times with 1xPBS. The cells were then cultured in standard culture media without Doxycycline. To set up the assay, the cells were then seeded into 96-well cell culture plates (Greiner Bio-One Catalog #655090) at a concentration of 50,000 cells/well with a final volume of 100 μL/well and incubated in the CO2 incubator at 37 °C for 24 h. The media were removed from the cells and replaced with 100 μL of media containing 0.1 % DMSO or compounds, and incubated in the CO2 incubator at 37 °C for 6 h. The media were then replaced with fresh 100 μL of media containing the diluted compounds with 0.7 μM (−)-MG-132, and the plates were incubated for 72 h under culture conditions. After 72 h, the cells were stained with Hoescht 33,342 (55 μg/mL, 10 μL/well) and imaged (lex = 358, 513 nm) using a Molecular Devices ImageXpress Micro Confocal High-Content Imaging System equipped with a 40× objective. […] Image binning was set to 2. DAPI fluorescence was captured using an exposure time of 300 ms, and FITC fluorescence was captured using an exposure time of 400 ms. A 13-plane z-series was acquired for each field of view with a step size of 3 μm. For each condition, 2 sets of 9 images were generated in a 3 × 3 grid to separately image the SOD1^G85R YFP proteins and the nuclei stained with Hoescht 33,342. Image analysis was performed with MetaXpress software (Molecular Devices) using the Transfluor module. Parameters for puncta detection (aggregates) were set with a minimum pit width of 2 μm and a maximum pit width of 5 μm. Signal intensity thresholds were defined as 700 grayscale units above the local background. The analysis provided the average area of each cell that is covered by puncta (pit/cell), which are indicated by bright green spots on the SOD1^G85RYFP image set.
# The assay was performed in triplicate for each condition tested, and wells containing the media with vehicle (0.1 % DMSO) or (−)-MG-132 alone were used as controls representing the minimum and maximum aggregate formation. […] The data for EC50 determination was treated with Prism and fitted using a semi-logarithmic curve for determination of the EC50 values of NU9 and compounds 4, 6, 20 and 21.
# [3] = Parallel artificial membrane permeability assay - blood brain barrier (PAMPA-BBB); details: for Log Pe: High permeability LogPe > −5.33, No permeability LogPe < −6.14; for Papp at 18 h, 250 μM: pig, PAMPA, pH 7.5
# Method: A solution of 1 × PBS (pH 7.5) was initially prepared by the dilution of a commercially available 10 × PBS solution. […] A solution of porcine brain lipid (PBL) (20 mg/mL in dodecane) was prepared, and 4 μL of this solution was used to coat the filters on the bottom of the PAMPA donor plates (Sigma Aldrich #MAIPNTR10). After air drying for 20 min, the donor plate wells were charged with 250 μL of the solutions of the test compounds or the controls. The donor plate was then placed over the acceptor plate (Sigma Aldrich #MATRNPS50), in which wells were previously filled with 1 × PBS (2 % DMSO v/v) solution. The PAMPA sandwich was closed with parafilm and incubated at 25 °C for 18 h in a humidity-saturated atmosphere with orbital agitation. […] The UV spectra (250–400 nm) of each well were acquired on a BioTek Synergy H1 MD plate reader equipped with a monochromator at room temperature.
# CA(t) is the concentration of the compounds at the final time of incubation on the acceptor well; CD(0) and CD(t) are the concentration of the compounds at the initial time of incubation and at the final time of incubation on the donor well, respectively.
# P-gp = target: T1, P-gp (Homo sapiens, UniProt P08183); assay: MDCK-MDR1 bidirectional permeability / efflux assay; format: in vitro ADME; details: MDCK-MRD1, absence of zosuquidar
# T1 construct: host or cells: MDCK-MDR1 (Madin Darby canine kidney cells carrying the MDR1 gene)
# T1 sequence (P08183 whole entry): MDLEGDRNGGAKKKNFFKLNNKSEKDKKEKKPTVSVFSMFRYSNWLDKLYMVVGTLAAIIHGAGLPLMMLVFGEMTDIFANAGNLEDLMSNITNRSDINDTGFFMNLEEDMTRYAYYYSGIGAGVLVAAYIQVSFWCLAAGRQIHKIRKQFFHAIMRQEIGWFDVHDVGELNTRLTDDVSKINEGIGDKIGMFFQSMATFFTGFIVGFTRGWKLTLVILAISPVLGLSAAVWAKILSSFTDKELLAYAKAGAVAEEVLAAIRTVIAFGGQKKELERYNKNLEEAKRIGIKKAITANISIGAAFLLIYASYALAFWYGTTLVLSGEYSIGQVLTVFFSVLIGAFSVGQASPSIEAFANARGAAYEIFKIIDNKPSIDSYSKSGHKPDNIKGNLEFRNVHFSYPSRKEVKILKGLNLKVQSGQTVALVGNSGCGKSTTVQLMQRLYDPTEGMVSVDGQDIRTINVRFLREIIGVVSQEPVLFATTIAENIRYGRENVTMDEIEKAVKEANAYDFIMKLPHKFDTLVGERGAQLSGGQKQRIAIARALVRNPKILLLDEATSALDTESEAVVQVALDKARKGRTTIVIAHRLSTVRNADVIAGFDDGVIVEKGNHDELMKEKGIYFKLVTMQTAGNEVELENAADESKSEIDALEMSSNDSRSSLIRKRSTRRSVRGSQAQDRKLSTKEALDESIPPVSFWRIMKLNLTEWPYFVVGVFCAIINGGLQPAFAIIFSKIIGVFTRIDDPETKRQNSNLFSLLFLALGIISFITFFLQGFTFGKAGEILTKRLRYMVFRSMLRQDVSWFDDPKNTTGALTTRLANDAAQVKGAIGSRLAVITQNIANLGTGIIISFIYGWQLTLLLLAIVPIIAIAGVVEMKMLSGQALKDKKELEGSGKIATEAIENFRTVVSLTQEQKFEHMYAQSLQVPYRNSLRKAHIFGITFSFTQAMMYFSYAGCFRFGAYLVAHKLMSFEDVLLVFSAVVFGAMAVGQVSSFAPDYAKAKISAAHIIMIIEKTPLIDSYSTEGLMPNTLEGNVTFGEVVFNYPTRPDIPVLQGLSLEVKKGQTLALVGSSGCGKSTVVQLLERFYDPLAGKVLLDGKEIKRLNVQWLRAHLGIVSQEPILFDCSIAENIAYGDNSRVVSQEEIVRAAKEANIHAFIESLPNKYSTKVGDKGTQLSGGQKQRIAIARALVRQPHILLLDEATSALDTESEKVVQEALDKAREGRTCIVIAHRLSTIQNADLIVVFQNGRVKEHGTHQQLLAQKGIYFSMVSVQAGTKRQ
# Method: The assay was carried out at Sai Life Sciences. Stock solutions of 6, 20, assay controls loperamide, atenolol, and propanolol (4 and 20 mM), and P-gp inhibitor zosuquidar (10 mM) were prepared in DMSO. Then the stock solutions from each test compound were diluted in HBSS buffer containing 10 mM HEPES to obtain the assay working solutions without the P-gp inhibitor at 2 and 10 μM (0.1 % DMSO v/v). Into working solutions containing zosuquidar (5 μM) were individually diluted 6, 20, and loperamide to obtain working solutions containing the test compounds at 2 or 10 μM and zosuquidar at 5 μM.
# The MDCK-MDR1 (Madin Darby canine kidney - Multidrug Resistance gene-1) cells were cultured in DMEM media supplemented with 10 % FBS and antibiotics. For transport studies, cells were seeded into PET trans filter membranes (Millipore #PSRP010R5; 1.0 μm pore size) at a density of 1.2 × 10^5 cells/well and colchicine was added to the flasks and plates according to their volume. After 24 h, the media were replaced by fresh media and then changed every 2 days over 8 days. The media were removed from the wells of the basal and apical compartments of the plates, and a solution of HBSS with or without zosuquidar (5 μM) was added to the apical (400 μL) and basal (800 μL) sides of the plates. The plates were pre-incubated at 37 °C for 30 min in humidified air with 5 % CO2. The TTER (Transepithelial-Transendothelial Electrical Resistance) value for each well was recorded (assay TEER >83 Ω.cm^2). The buffer was removed from both compartments, and for the apical to basal direction transport determination, the apical compartment was loaded with 400 μL of the working solutions of the tested compounds or controls (2 or 10 μM) in the presence or absence of zosuquidar (5 μM), and the basal compartment was loaded with 800 μL of HBSS (0.1 % DMSO v/v). For the basal to apical direction transport determination, the compartments were loaded in their reverse order. The assay was performed in duplicate for the two transport directions [apical to basolateral (A → B) and basolateral to apical (B → A)]. After 120 min, 100 μL samples from both the apical and basal sides of the plate were transferred to new 96-deep well plates, quenched with acetonitrile containing an internal standard, vortexed for 5 min, and then centrifuged at 4000 rpm for 10 min. The same procedure was used to prepare a 96-deep well plate containing non-assayed working solutions (t = 0 concentrations). After centrifugation, 100 μL of the supernatant of each well was transferred to a new 96-well plate, and the samples were analyzed by LC-MS/MS.
# For each experiment, the apparent permeability (Papp) for each direction and the efflux ratio (ER) were determined by the equations: Papp(cm/s)=(dQ/dt)/A×Co
# where dQ/dt is the rate of permeation of the tested compounds across the (0 and 120 min) after correcting for dilution; A is the area of the filter (0.7 cm^2); Co is the initial concentration of the compounds on the donor compartment.
# Where P(B→A) is the apparent permeability of the compounds from the basal to the apical direction and P(A→B) is the apparent permeability from the apical to basal direction. Lucifer Yellow was used as a control of the assay to evaluate monolayer integrity after incubation with the working solutions of the compounds, and the results were validated if the permeability of Lucifer Yellow from the apical to the basal side after 1-h incubation was kept <2 %. The results are presented as an average of two independent experiments.
structure (smiles),measurement,setting,value
O=C1CC(=O)CC(c2ccc(F)cc2)C1 [Compound 1],EC50,[1],0.8 µM
O=C1CC(=O)CC(c2cc(C(F)(F)F)cc(C(F)(F)F)c2)C1 [Compound 2],activity in cortical neuron protection assays,cortical neurons,inactive
same,EC50,[1],0.7 µM
"O=C1CC(=O)CC(C(O)Cc2cc(C(F)(F)F)cc(C(F)(F)F)c2)C1 (stereo not drawn) [Compound 4, 5-(2-(3,5-Bis(trifluoromethyl)phenyl)-1-hydroxyethyl)cyclohexane-1,3-dione]",EC50,[2],7.89 ± 1.88 µM
same,loss of potency relative to NU-9,[2],3 fold
same,Log Pe,[3]; PAMPA-BBB,−6.61
same,"Papp at 18 h, 250 μM",[3],0.25 ± 0.01 ×10⁻⁶ cm/s
"O[C@@H]1CC([C@H](O)Cc2cc(C(F)(F)F)cc(C(F)(F)F)c2)C[C@H](O)C1 (stereo partly drawn) [Compound 5, (1R,3S)-5-((R)-2-(3,5-Bis(trifluoromethyl)phenyl)-1-hydroxyethyl)cyclohexane-1,3-diol]",EC50 against MG132-induced mutant SOD1 intracellular aggregation,[2],Inactive
"COC1=CC(=O)C(Cc2cc(C(F)(F)F)cc(C(F)(F)F)c2)C1 (stereo not drawn) [Compound 7, 5-(3,5-Bis(trifluoromethyl)benzyl)-3-methoxycyclopent-2-en-1-one]",EC50 against MG132-induced mutant SOD1 intracellular aggregation,[2],Inactive
"O=C1CC(=O)C(Cc2cc(C(F)(F)F)cc(C(F)(F)F)c2)C1 (stereo not drawn) [Compound 8, 4-(3,5-Bis(trifluoromethyl)benzyl)cyclopentane-1,3-dione]",EC50,[2],> 10 µM
"O=C1CC(=O)CN(CCc2cc(C(F)(F)F)cc(C(F)(F)F)c2)C1 [Compound 10, 1-(3,5-Bis(trifluoromethyl)phenethyl)piperidine-3,5-dione]",EC50,[2],> 10 µM
O=C1CC2CC(C1)C(Cc1cc(C(F)(F)F)cc(C(F)(F)F)c1)O2 (stereo not drawn) [Compound 11],EC50 against MG132-induced mutant SOD1 intracellular aggregation,[2],Inactive
O=C1CC2CC(C1)C(Cc1cc(C(F)(F)F)cc(C(F)(F)F)c1)O2 (stereo not drawn) [Compound 12],EC50 against MG132-induced mutant SOD1 intracellular aggregation,[2],Inactive
OC1CC2CC(C1)C(Cc1cc(C(F)(F)F)cc(C(F)(F)F)c1)O2 (stereo not drawn) [Compound 13],EC50 against MG132-induced mutant SOD1 intracellular aggregation,[2],Inactive
OC1CC2CC(C1)C(Cc1cc(C(F)(F)F)cc(C(F)(F)F)c1)O2 (stereo not drawn) [Compound 14],EC50 against MG132-induced mutant SOD1 intracellular aggregation,[2],Inactive
OC1CC2CC(C1)C(Cc1cc(C(F)(F)F)cc(C(F)(F)F)c1)O2 (stereo not drawn) [Compound 15],EC50 against MG132-induced mutant SOD1 intracellular aggregation,[2],Inactive
O=C1CC2CC(C1)C(c1cc(C(F)(F)F)cc(C(F)(F)F)c1)O2 (stereo not drawn) [Compound 16],EC50,[2],> 10 µM
same,decrease in MG132-induced SOD-1^G85R aggregate formation,"[2]; at 10 μM, 72 h",mild anti-aggregation activity
OC1CC2CC(C1)C(c1cc(C(F)(F)F)cc(C(F)(F)F)c1)O2 (stereo not drawn) [Compound 17],EC50 against MG132-induced mutant SOD1 intracellular aggregation,[2],Inactive
"Cl.N[C@H]1C[C@H]2C[C@@H](C1)[C@H](Cc1cc(C(F)(F)F)cc(C(F)(F)F)c1)O2 [Compound 18, (1R,3R,5R,7S)-7-(3,5-Bis(trifluoromethyl)benzyl)-6-oxabicyclo[3.2.1]octan-3-aminium chloride]",EC50 against MG132-induced mutant SOD1 intracellular aggregation,[2],Inactive
"Cl.N[C@@H]1C[C@H]2C[C@@H](C1)[C@H](Cc1cc(C(F)(F)F)cc(C(F)(F)F)c1)O2 [Compound 19, (1R,3S,5R,7S)-7-(3,5-Bis(trifluoromethyl)benzyl)-6-oxabicyclo[3.2.1]octan-3-aminium chloride]",EC50 against MG132-induced mutant SOD1 intracellular aggregation,[2],Inactive
"O=C1CC(=O)CC(C2(Oc3cc(C(F)(F)F)cc(C(F)(F)F)c3)CCC2)C1 [Compound 21, 5-(1-(3,5-bis(trifluoromethyl)phenoxy)cyclobutyl)cyclohexane-1,3-dione]",EC50,[2],5.37 ± 1.03 µM
same,loss of potency relative to NU-9,[2],> 2 fold
same,Log Pe,[3]; PAMPA-BBB,−4.77
same,"Papp at 18 h, 250 μM",[3],16.8 ± 0.54 ×10⁻⁶ cm/s
"CC1=NN(c2ccccc2)C(=O)C1 [Edaravone, edaravone, reference compound]",Pe,"[3]; PAMPA-BBB, 250 μM, PBS pH 7.5, 25 °C, 18 h",17.43 ± 3.20 10^−6 cm/s
same,Log Pe,[3]; PAMPA-BBB,−4.76
"CN(C)C(=O)C(CCN1CCC(O)(c2ccc(Cl)cc2)CC1)(c1ccccc1)c1ccccc1 [Lop., loperamide, reference compound]",Papp (B → A),P-gp,25.70 ± 0.35 10^−6 cm/s
same,efflux ratio at 120 min,"P-gp; dog, MDCK-MDR1, read-out: Efflux Ratio",128
same,Papp A→B at 120 min,"P-gp; dog, MDCK-MDR1, read-out: Papp (A → B)",0.2 ± 0.06 ×10⁻⁶ cm/s
